In ChEMBL document CHEMBL1201862, “PubChem BioAssay data set” (2004):
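Grown in 96-well plates, cells were treated for 48 hours with each compound at five concentrations. Insufficient inhibition: endpoint recorded as highest concentration tested. At the GI50, growth is halved.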 Activity calls are given as the source filed them. No stated cut-off is given here; in the data, active = GI50 up to about 1.1 µM and inactive = higher.

How the values were obtained:
Assay in all cases: NCI-60 cell line screen, 48 h
786-0 = system: 786-0
A498 = system: A498
A549 = system: A549
ACHN = system: ACHN
CAKI-1 = system: CAKI-1
CCRF-CEM = system: CCRF-CEM
COLO 205 = system: COLO 205
DLD-1 = system: DLD-1
DMS-114 = system: DMS-114
DMS-273 = system: DMS-273
EKVX = system: EKVX
HCC 2998 = system: HCC 2998
HCT-116 = system: HCT-116
HCT-15 = system: HCT-15
HL-60 = system: HL-60
HOP-18 = system: HOP-18
HOP-62 = system: HOP-62
HOP-92 = system: HOP-92
HT-29 = system: HT-29
IGROV-1 = system: IGROV-1
K562 = system: K562
KM-20L2 = system: KM-20L2
KM12 = system: KM12
LOX IMVI = system: LOX IMVI
LXFL 529 = system: LXFL 529
M14 = system: M14
M19-MEL = system: M19-MEL
MOLT-4 = system: MOLT-4
Malme-3M = system: Malme-3M
NCI-H226 = system: NCI-H226
NCI-H23 = system: NCI-H23
NCI-H460 = system: NCI-H460
NCI-H522 = system: NCI-H522
OVCAR-3 = system: OVCAR-3
OVCAR-4 = system: OVCAR-4
OVCAR-5 = system: OVCAR-5
OVCAR-8 = system: OVCAR-8
RPMI-8226 = system: RPMI-8226
RXF 393 = system: RXF 393
RXF 631 = system: RXF 631
SF-268 = system: SF-268
SF-295 = system: SF-295
SF-539 = system: SF-539
SK-MEL-28 = system: SK-MEL-28
SK-MEL-2 = system: SK-MEL-2
SK-MEL-5 = system: SK-MEL-5
SK-OV-3 = system: SK-OV-3
SN12C = system: SN12C
SNB-19 = system: SNB-19
SNB-75 = system: SNB-75
SNB-78 = system: SNB-78
SW-620 = system: SW-620
TK-10 = system: TK-10
U-251 = system: U-251
UACC-257 = system: UACC-257
UACC-62 = system: UACC-62
UO-31 = system: UO-31
XF498 = system: XF498

CC1=NN(c2ccccc2)C(=O)C1=C1SCCS1
GI50 (786-0): > 72.9 µM (inactive)
GI50 (A498): > 77.1 µM (inactive)
GI50 (A549): > 70 µM (inactive)
GI50 (ACHN): 97.1 µM (inactive)
GI50 (CAKI-1): > 78.9 µM (inactive)
GI50 (CCRF-CEM): 29.2 µM (inactive)
GI50 (COLO 205): 25.1 µM (inactive)
GI50 (DLD-1): 32.6 µM (inactive)
GI50 (DMS-114): > 46.3 µM (inactive)
GI50 (DMS-273): > 58.3 µM (inactive)
GI50 (EKVX): 47.5 µM (inactive)
GI50 (HCC 2998): > 87.1 µM (inactive)
GI50 (HCT-116): > 48 µM (inactive)
GI50 (HCT-15): 40.9 µM
GI50 (HL-60): > 40 µM (inactive)
GI50 (HOP-18): 36.3 µM (inactive)
GI50 (HOP-62): > 100 µM (inactive)
GI50 (HOP-92): 37 µM (inactive)
GI50 (HT-29): > 74.5 µM (inactive)
GI50 (IGROV-1): 82.4 µM (inactive)
GI50 (K562): 43.6 µM (inactive)
GI50 (KM-20L2): > 65.6 µM (inactive)
GI50 (KM12): > 88.9 µM (inactive)
GI50 (LOX IMVI): 42.6 µM (inactive)
GI50 (LXFL 529): > 67.9 µM (inactive)
GI50 (M14): > 79.4 µM (inactive)
GI50 (M19-MEL): 41.8 µM (inactive)
GI50 (MOLT-4): 15 µM (inactive)
GI50 (Malme-3M): > 67.6 µM (inactive)
GI50 (NCI-H226): > 64 µM (inactive)
GI50 (NCI-H23): > 100 µM (inactive)
GI50 (NCI-H460): 50.7 µM (inactive)
GI50 (NCI-H522): 43 µM (inactive)
GI50 (OVCAR-3): 34.9 µM (inactive)
GI50 (OVCAR-4): > 100 µM (inactive)
GI50 (OVCAR-5): > 100 µM (inactive)
GI50 (OVCAR-8): > 77.6 µM (inactive)
GI50 (RPMI-8226): > 25.8 µM (inactive)
GI50 (RXF 393): 37 µM (inactive)
GI50 (RXF 631): > 89.7 µM (inactive)
GI50 (SF-268): > 94.6 µM (inactive)
GI50 (SF-295): > 71.8 µM (inactive)
GI50 (SF-539): > 100 µM (inactive)
GI50 (SK-MEL-28): > 100 µM (inactive)
GI50 (SK-MEL-2): > 100 µM (inactive)
GI50 (SK-MEL-5): 59.3 µM (inactive)
GI50 (SK-OV-3): > 100 µM (inactive)
GI50 (SN12C): > 83 µM (inactive)
GI50 (SNB-19): > 86.7 µM (inactive)
GI50 (SNB-75): > 88.1 µM (inactive)
GI50 (SNB-78): > 100 µM (inactive)
GI50 (SW-620): > 38.3 µM (inactive)
GI50 (TK-10): > 55.1 µM (inactive)
GI50 (U-251): > 53.2 µM (inactive)
GI50 (UACC-257): > 74.6 µM (inactive)
GI50 (UACC-62): > 62.2 µM (inactive)
GI50 (UO-31): 37.9 µM (inactive)
GI50 (XF498): 32.7 µM (inactive)
